From ChEMBL document CHEMBL1140853, “The stereochemistry of N-methyl and aryl substituents determine the biological activities of 3-aryl-8-methyl-8-azabicyclo[3.2.1]oct-2,3-enes” (Bioorg Med Chem, 2009)

Assays:
Homo sapiens [1] = organism: Homo sapiens; assay: Selectivity for human SERT over human NET
Homo sapiens [2] = organism: Homo sapiens; assay: Selectivity for human SERT over human DAT

**Q.** For `CN1C2C=C(c3c[nH]c4ccccc34)CC1CC2` (configuration not stated), which Ratio (Homo sapiens [1]) is on record?
**A.** The Ratio was 54.

**Q.** What about the Ratio (Homo sapiens [2]) of the same compound?
**A.** Its Ratio is 8.3.

**Q.** Which results are given for `CN1C2C=C(c3cccc(-c4ccccc4)c3)CC1CC2` (configuration not stated)?
**A.** Ratio (Homo sapiens [1]): 34; Ratio (Homo sapiens [2]): 10.8

**Q.** Which results are given for `CN1C2C=C(c3ccccc3-c3ccccc3)CC1CC2` (configuration not stated)?
**A.** Ratio (Homo sapiens [1]): 3.8; Ratio (Homo sapiens [2]): 5.4

**Q.** Which Ratio (Homo sapiens [1]) does the source give for `CN1C2C=C(c3cccc4ccccc34)CC1CC2` (configuration not stated) here?
**A.** The Ratio was 94.4.

**Q.** What about the Ratio (Homo sapiens [2]) of the same compound?
**A.** The Ratio was 11.6.

**Q.** How did the Ratio (Homo sapiens [1]) turn out when `CN1C2C=C(c3ccc4c(c3)Cc3ccccc3-4)CC1CC2` (configuration not stated) was run?
**A.** The Ratio was 232.

**Q.** And the Ratio (Homo sapiens [2])?
**A.** The Ratio was 52.2.

**Q.** What does the source list for `CN1C2C=C(C3c4ccccc4-c4ccccc43)CC1CC2` (configuration not stated)?
**A.** Ratio (Homo sapiens [1]): 120; Ratio (Homo sapiens [2]): 13.6
